Assays:
Type in all cases: in vivo, human
[1] = test system: well-compensated NASH cirrhotic patients; assay: MAESTRO-NAFLD-1 open label well-compensated NASH cirrhotic arm, 52 weeks
Description: LV was assessed using a validated artificial intelligence model for segmenting the liver on standard MR images. […] Eligibility required at least 3 metabolic risk factors (metabolic syndrome), and NASH cirrhosis diagnosed on liver biopsy or according to accepted criteria. […] Demographics include mean age 62.7 (9.0 (SD)), female 64%, BMI 35.4 (7.4), diabetes 70%, hypertension 77%, dyslipidemia >70%, mean ASCVD score 16.1%, hypothyroid 32.4%, 51% on statins. […] Stage of cirrhosis was inversely correlated with baseline PDFF.

[2] = test system: adults with biopsy-confirmed NASH; assay: MAESTRO-NASH: non-invasive predictive markers of biopsy response; conditions: 100 mg
Description: Histologic endpoints were assessed after 52 weeks. […] The non-invasive correlates of response in the MAESTRO-NASH trial are summarized below.
Adults with ≥3 metabolic risk factors, liver stiffness ≥8.5 kPa, hepatic fat ≥8%, biopsy-confirmed NASH with F1B-F3 fibrosis, and NAS≥4 were eligible to participate in MAESTRO-NASH.
Random Forest model was utilized to determine the biomarkers and imaging tests both at baseline and change from baseline that had the most important association with response on biopsy for NASH resolution and/or fibrosis improvement. The data was based on baseline characteristics and change from baseline of more than 40 variables: biomarkers, clinical features, and imaging. This analysis confirmed the importance of MRI-PDFF (FIGS. 42-43).

[3] = test system: adults with biopsy-confirmed NASH and fibrosis stage F1B, F2, or F3; assay: MAESTRO-NASH phase 3: liver biopsy end points at week 52
Description: A phase 3 trial was conducted involving adults with biopsy-confirmed NASH and a fibrosis stage of F1B, F2, or F3 (stages range from F0 [no fibrosis] to F4 [cirrhosis]).
Randomization was performed with the use of an interactive Webresponse system. Patients were stratified according to status with respect to type 2 diabetes (presence or absence) and fibrosis stage (F1, F2, or F3). Throughout the trial, patients received nutrition and exercise counseling according to current recommendations. Patients were unaware of the trial-group assignments, as were site personnel, personnel of contract research organizations, and sponsor personnel who were conducting the trial, administering the investigational product, and performing clinical assessments. Selected persons were aware of the trial-group assignments to facilitate dispensation of resmetirom or placebo. All trial personnel were unaware of the results of postbaseline tests that could reveal the trial-group assignments, including levels of total and free thyroxine (T4), sex hormone-binding globulin, and lipids as well as magnetic resonance imaging proton density fat fraction (MRI-PDFF).
Screening biopsy results were used as baseline values for histologic variables, and a second biopsy was performed at week 52. Biopsy specimens on glass slides were assessed centrally by two independent expert pathologists (the second and third authors) to determine the NAFLD activity score and fibrosis stage (according to NASH Clinical Research Network criteria). For the primary analysis, all screening or baseline biopsy specimens and week 52 biopsy specimens on glass slides were reread independently by both pathologists in large unpaired groups of screening or baseline biopsy specimens (50 to 100 slides per group, spiked with biopsy specimens obtained from patients who had screening failure) or a separate matched set of week 52 biopsy specimens (50 to 100 slides per group). The pathologists were unaware of the trial-group assignments, patient characteristics, and each other's assessments. A consensus review was conducted as a supportive analysis wherein the two pathologists read blinded (to time of biopsy and identification code) digitized images for cases in which there was disagreement on the primary read with respect to response status for the two primary end points or a reduction in fibrosis by at least two stages. Only the NAFLD activity scores or fibrosis components that determined the response for which there was disagreement between the pathologists were reread. Details are provided in the Supplementary Appendix.
The primary statistical analysis model used the Cochran-Mantel-Haenszel test to determine response with respect to the biopsy end points.

[4] = cirrhotic NASH, PDFF≤5% at baseline, week 16

CC(C)c1cc(Oc2c(Cl)cc(-n3nc(C#N)c(=O)[nH]c3=O)cc2Cl)n[nH]c1=O [Resmetirom, 2-(3,5-dichloro-4-((5-isopropyl-6-oxo-1,6-dihydropyridazin-3-yl)oxy)phenyl)-3,5-dioxo-2,3,4,5-tetrahydro-1,2,4-triazine-6-carbonitrile]
fibroscan CAP change ([1]; 80-100 mg daily, week 52): −42 units
fibroscan kPa change ([1]; 80-100 mg daily, week 52): −7.6 kPa
LV mean %CFB [1, 4]: −16.3%
PDFF mean %CFB [1, 4]: −2.5%
ApoB reduction ([1]; in vivo): 20%
Blood pressure reduction ([1]; in vivo): 4-5 mm
GGT change ([1]; in vivo): −27%
LDL-C reduction ([1]; in vivo): 20%
Lp(a) reduction ([1]; in vivo): 30%
alkaline phosphatase (ALP) change ([1]; in vivo): −18%
safety and tolerability ([1]; in vivo): safe and well-tolerated
triglycerides reduction ([1]; in vivo): 21%
PDFF lowered by ([1]; patients with baseline PDFF>5%): 37%
Liver volume change ([1]; week 16): −15.9%
MRE lowered by ([1]; week 52): 0.68 kPa
patients with >15% reduction in LV ([1]; week 52): 73%
patients with MRE reduction of ≥15% ([1]; week 52): 34%
NASH resolution responders with at least a 30% PDFF response [2]: 96%
fibrosis improvement responders with at least a 30% PDFF response [2]: 88%
Both NASH resolution and fibrosis improvement by ≥1 stage, difference from placebo ([3]; 80 mg): 9.5 percentage points
Both NASH resolution and fibrosis improvement by ≥1 stage, percent with response ([3]; 80 mg): 14.2%
Fibrosis improvement by ≥1 stage with no worsening of NAFLD activity score, difference from placebo ([3]; 80 mg): 10.2 percentage points
Fibrosis improvement by ≥1 stage with no worsening of NAFLD activity score, percent with response ([3]; 80 mg): 24.2%
Improvement in each component of NAFLD activity score, difference from placebo ([3]; 80 mg): 16.1 percentage points
Improvement in each component of NAFLD activity score, percent with response ([3]; 80 mg): 23.3%
Improvement in fibrosis by ≥2 stages, difference from placebo ([3]; 80 mg): 5.6 percentage points
Improvement in fibrosis by ≥2 stages, percent with response ([3]; 80 mg): 8.3%
NASH resolution with no worsening of fibrosis, difference from placebo ([3]; 80 mg): 16.4 percentage points
NASH resolution with no worsening of fibrosis, percent with response ([3]; 80 mg): 25.9%
≥2-Point improvement in NAFLD activity score with improvement in fibrosis, difference from placebo ([3]; 80 mg): 10.5 percentage points
≥2-Point improvement in NAFLD activity score with improvement in fibrosis, percent with response ([3]; 80 mg): 18.8%
≥2-Point improvement in NAFLD activity score with no worsening of fibrosis, difference from placebo ([3]; 80 mg): 20.2 percentage points
≥2-Point improvement in NAFLD activity score with no worsening of fibrosis, percent with response ([3]; 80 mg): 41.3%
Both NASH resolution and fibrosis improvement by ≥1 stage, difference from placebo ([3]; 100 mg): 11.6 percentage points
Both NASH resolution and fibrosis improvement by ≥1 stage, percent with response ([3]; 100 mg): 16.0%
Fibrosis improvement by ≥1 stage with no worsening of NAFLD activity score, difference from placebo ([3]; 100 mg): 11.8 percentage points
Fibrosis improvement by ≥1 stage with no worsening of NAFLD activity score, percent with response ([3]; 100 mg): 25.9%
Improvement in each component of NAFLD activity score, difference from placebo ([3]; 100 mg): 20.9 percentage points
Improvement in each component of NAFLD activity score, percent with response ([3]; 100 mg): 27.9%
Improvement in fibrosis by ≥2 stages, difference from placebo ([3]; 100 mg): 7.4 percentage points
Improvement in fibrosis by ≥2 stages, percent with response ([3]; 100 mg): 10.1%
NASH resolution with no worsening of fibrosis, difference from placebo ([3]; 100 mg): 20.7 percentage points
NASH resolution with no worsening of fibrosis, percent with response ([3]; 100 mg): 29.9%
≥2-Point improvement in NAFLD activity score with improvement in fibrosis, difference from placebo ([3]; 100 mg): 13.0 percentage points
≥2-Point improvement in NAFLD activity score with improvement in fibrosis, percent with response ([3]; 100 mg): 21.2%
≥2-Point improvement in NAFLD activity score with no worsening of fibrosis, difference from placebo ([3]; 100 mg): 23.8 percentage points
≥2-Point improvement in NAFLD activity score with no worsening of fibrosis, percent with response ([3]; 100 mg): 44.9%
